Source: US20020094522A1, “Means and methods for monitoring non-nucleoside reverse transcriptase inhibitor antiretroviral therapy and guiding therapeutic decisions in the treatment of HIV/AIDS” (priority 2000, published 2002)
“Also recorded” adds a separate entry of the source.

Assays:
[1] = tested on: RTV-1057 (patient sample 98-1057); experiment: Phenotypic susceptibility assay, RTV-1057; format: cell-based, HIV-1; conditions: RTV-1057, patient-derived pool
Experimental: (§1) Transfections were performed using a calcium-phosphate precipitation procedure. […] Cell lysates were assayed for luciferase activity (FIG. 3).
(§2) The drug inhibition curves are shown in (FIG. 3).
A resistance test vector was constructed as described in Example 1 from a patient sample designated 98-1057. This patient had been previously treated with ddI, d4T, AZT, and 3TC (NRTIs), saquinavir and indinavir (PRIs) and delavirdine (an NNRTI). Isolation of viral RNA and RT/PCR was used to generate a patient derived segment that comprised viral sequences coding for all of PR and aa 1-313 RT. The PDS was inserted into an indicator gene viral vector to generate resistance test vector designated RTV-1057. RTV-1057 was then tested in a phenotypic assay to determine accurately and quantitatively the level of susceptibility to a panel of anti-retroviral drugs. […] An IC50 was determined for the resistance test vector pool for each drug tested. The pattern of susceptibility to all of the drugs tested was examined and compared to known patterns of susceptibility.

[2] = tested on: RTV-1058 Clone 4 (K103N and Y188L); experiment: Phenotypic susceptibility assay, RTV-1058 clone 4; format: cell-based, HIV-1
Experimental: The resistance test vectors containing a functional luciferase gene cassette were constructed and host cells were transfected with the resistance test vector DNA. The resistant test vectors contained patient-derived reverse transcriptase and protease sequences that were either susceptible or resistant to the antiretroviral agents, such as nucleoside reverse transcriptase inhibitors, non-nucleoside reverse transcriptase inhibitors and protease inhibitors. […] The IC50 values were determined by plotting percent drug inhibition vs. log10 drug concentration.
(§3) Host cells were seeded in 10-cm-diameter dishes and were transfected several days after plating with resistance test vector plasmid DNA and the envelope expression vector. […] HIV capsid protein (p24) levels in the harvested cell culture media were determined by an EIA method as described by the manufacturer (SIAC; Frederick, Md.). […] The inhibitory effect of the drug was determined using the following equation: […]
A resistance test vector was constructed as described in Example 1 from a patient sample designated 98-1058. […] An IC50 was determined for the resistance test vector pool for each drug tested.

[3] = tested on: RTV-268 (patient sample 97-268; P236L); experiment: Phenotypic susceptibility assay, RTV-268; format: cell-based, HIV-1; conditions: RTV-268 / patient 268
Description: (§4) The resistance test vectors containing a functional luciferase gene cassette were constructed and host cells were transfected with the resistance test vector DNA. The resistant test vectors contained patient-derived reverse transcriptase and protease sequences that were either susceptible or resistant to the antiretroviral agents, such as nucleoside reverse transcriptase inhibitors, non-nucleoside reverse transcriptase inhibitors and protease inhibitors. The resistance test vector viral particles produced by transfecting the resistance test vector DNA into host cells, either in the presence or absence of protease inhibitors, were used to infect target host cells grown either in the absence of NRTI or NNRTI or in the presence of increasing concentrations of the drug. The amount of luciferase activity produced in infected target host cells in the presence of drug was compared to the amount of luciferase produced in infected target host cells in the absence of drug. Drug resistance was measured as the amount of drug required to inhibit by 50% the luciferase activity detected in the absence of drug (inhibitory concentration 50%, IC50). The IC50 values were determined by plotting percent drug inhibition vs. log10 drug concentration.
Host cells were seeded in 10-cm-diameter dishes and were transfected several days after plating with resistance test vector plasmid DNA and the envelope expression vector. Transfections were performed using a calcium-phosphate precipitation procedure. The cell culture media containing the DNA precipitate was replaced with fresh medium, from one to 24 hours, after transfection. Cell culture media containing resistance test vector viral particles was harvested one to four days after transfection and was passed through a […] filter before being stored at −80° C. HIV capsid protein (p24) levels in the harvested cell culture media were determined by an EIA method as described by the manufacturer (SIAC; Frederick, Md.). Before infection, target cells (293 and 293/T) were plated in cell culture media. Control infections were performed using cell culture media from mock transfections (no DNA) or transfections containing the resistance test vector plasmid DNA without the envelope expression plasmid. One to three or more days after infection the media was removed and cell lysis buffer (Promega) was added to each well. […] The inhibitory effect of the drug was determined using the following equation: […]
where RLUluc [drug] is the relative light unit of luciferase activity in infected cells in the presence of drug and RLUluc is the Relative Light Unit of luciferase activity in infected cells in the absence of drug. IC50 values were obtained from the sigmoidal curves that were generated from the data by plotting the percent inhibition of luciferase activity vs. the log10 drug concentration.
A resistance test vector was constructed as described in Example 1 from a patient sample designated 97-268. […] Isolation of viral RNA and RT/PCR was used to generate a patient derived segment that comprised viral sequences coding for all of PR and amino acids 1-313 of RT. The patient derived segment was inserted into a indicator gene viral vector to generate a resistance test vector designated RTV-268. RTV-268 was then tested using the phenotypic susceptibility assay to determine accurately and quantitatively the level of susceptibility to a panel of anti-retroviral drugs. […] An IC50 was determined for each drug tested. Susceptibility of the patient virus to each drug was examined and compared to the susceptibility of a reference virus. […] The sample was examined further for genotypic changes associated with the pattern of susceptibility.

[4] = tested on: patient 487 virus (RT M184V, K103N); experiment: Phenotypic susceptibility assay, patient 487; format: cell-based, HIV; conditions: patient 487, FIG. 4
Description: as §4, with “The amount of luciferase activity produced in infected target host cells in the presence of drug was compared to the amount of luciferase produced in infected target host cells in the absence of drug. Drug resistance was measured as the amount of drug required to inhibit by 50% the luciferase activity detected in the absence of drug (inhibitory concentration 50%, IC50).” left out
as §3

[5] = tested on: P225H-RTV (HIV reverse transcriptase P225H); experiment: Phenotypic susceptibility assay, P225H-RTV; format: cell-based, HIV-1; conditions: P225H mutation alone
Experimental: as §1, §2
(§5) Resistance test vectors were constructed containing the P225H mutation alone and in combination with other known drug resistance mutations (K103N, Y181C) known to modulate the HIV susceptibility to NNRTIs. […] (Sakar G and Sommar SS (1994) Biotechniques 8(4), 404-407). […] The pattern of phenotypic susceptibility to the NNRTI, delavirdine in the P225H-RTV was altered as compared to wild type.

[6] = tested on: RTVs containing P225H plus K103N, Y181C or both (K103N+Y181C); experiment: Phenotypic susceptibility assay, P225H added to K103N, Y181C or both; format: cell-based, HIV-1; conditions: P225H with K103N
Experimental: as §1, §2, §5

[7] = tested on: RTV-675 (patient sample 98-675); experiment: Phenotypic susceptibility assay, RTV-675; format: cell-based, HIV-1; conditions: RTV-675, patient-derived pool
Experimental: as §1, §2
A resistance test vector was constructed as described in Example 1 from a patient sample designated 98-675. This patient had been previously treated with ddI, AZT, and 3TC (NRTIs), and saquinavir and nelfinavir (PRIs). Isolation of viral RNA and RT/PCR was used to generate a patient derived segment that comprised viral sequences coding for all of PR and aa 1-313 of RT. The PDS was inserted into an indicator gene viral vector to generate a resistance test vector designated RTV-675. RTV-675 was then tested in a phenotypic assay to determine accurately and quantitatively the level of susceptibility to a panel of anti-retroviral drugs. […] The pattern of susceptibility to all of the drugs tested was examined and compared to known patterns of susceptibility.

[8] = tested on: RTV-652 (patient sample 98-652); format: cell-based, HIV-1; conditions: values <1 = increased susceptibility
Description: as §4, with “The amount of luciferase activity produced in infected target host cells in the presence of drug was compared to the amount of luciferase produced in infected target host cells in the absence of drug. Drug resistance was measured as the amount of drug required to inhibit by 50% the luciferase activity detected in the absence of drug (inhibitory concentration 50%, IC50).” left out
as §3
An IC50 was determined for the resistance test vector pool for each drug tested.

Compound | fold decrease in susceptibility (IC50) [1] [fold] | fold loss of susceptibility (IC50) [2] | susceptibility/resistance compared to reference virus [3] | susceptibility/resistance profile [4] | change in susceptibility compared to wild type control RTV [5] | change in susceptibility compared to the corresponding RTV lacking P225H [6] | fold decrease in susceptibility (IC50) [7] [fold] | fold change in susceptibility (IC50) [8] [fold]
CC(C)Nc1cccnc1N1CCN(C(=O)c2cc3cc(NS(C)(=O)=O)ccc3[nH]2)CC1 [delavirdine] | 35 | 85 fold | resistant to delavirdine; also recorded: phenotypic resistance to delavirdine | increased resistance | more susceptible to delavirdine than the wild type control RTV | more susceptible to inhibition by delavirdine if the P225H mutation was present | 2.1 | 0.97
Cc1ccnc2c1NC(=O)c1cccnc1N2C1CC1 [nevirapine] | 610 | greater than 800 fold | no change in nevirapine susceptibility; also recorded: nevirapine susceptibility was the same as wild type | increased resistance | No significant change in nevirapine susceptibility | did not significantly change nevirapine susceptibility | 6 | 5
